The text below walks through data of patent publication US10494337B2, “(20S)-1-α,25-dihydroxy-24,24-difluoro-19-nor-vitamin D3 analogs and their pharmaceutical uses” (Wisconsin Alumni Research Foundation, priority 2015, dated 2019).

Each structure is given as a SMILES string.

For one data set, the system named is HL-60 promyelocytes. The experiment in a line: HL-60 differentiation (NBT reduction). The note with it: for HL-60 differentiation ratio: average ratio of the 1α,25-(OH)2D3 ED50 to the ED50 for the analogue; for HL-60 differentiation activity, in words: compared with 1α,25-(OH)2D3.
The test system of data set [1] is 24-hydroxylase gene reporter plasmid in rat osteosarcoma cells. Put plainly: 24-hydroxylase (24-OHase) transcription, luciferase reporter. The note with it: for EC50: Rattus norvegicus, read-out: 24OHase transcription ED50; for 24OHase transcription Ratio: average ratio of the 1α,25-(OH)2D3 ED50 to the ED50 for the analogue. Background: Reporter assays use an easily measured gene product as a stand-in for the process of interest.
Protocol: (§1) The experiments were carried out in duplicate on two different occasions. […] The binding ratio is the average ratio of the 1□,25-(OH)2D3 Ki to the Ki for the analogue. ^bInduction of differentiation of HL-60 promyelocytes to monocytes by 1□,25-(OH)2D3 (1) and the synthesized vitamin D analogues. Differentiation state was determined by measuring the percentage of cells reducing nitro blue tetrazolium (NBT). The experiment was repeated in duplicate two times. […] The differentiation activity ratio is the average ratio of the 1□,25-(OH)2D3 ED50 to the ED50 for the analogue. ^cTranscriptional assay in rat osteosarcoma cells stably transfected with a 24-hydroxylase gene reporter plasmid. […] The luciferase activity ratio is the average ratio of the 1□,25-(OH)2D3 ED50 to the ED50 for the analogue.

A short description of data set [2]: Bone calcium mobilization in vivo (serum calcium). The note with it: rats on 0.02% Ca diet, four consecutive intraperitoneal doses, serum calcium 24 hours after the last dose. Set-up: species or system Sprague-Dawley rats. An excerpt: 2. In vivo Studies. Bone calcium mobilization and intestinal calcium transport.
Male, weanling Sprague-Dawley rats were purchased from Harlan (Indianapolis, Ind.). The animals were group housed and placed on Diet 11 (0.47% Ca)+AEK oil for one week followed by Diet 11 (0.02% Ca)+AEK oil for 3 weeks. The rats were then switched to a diet containing 0.47% Ca^26 for one week followed by two weeks on a diet containing 0.02% Ca. Dose administration began during the last week on 0.02% Ca diet. Four consecutive intraperitoneal doses were given approximately 24 hours apart. Twenty-four hours after the last dose, blood was collected from the severed neck and the concentration of serum calcium determined as a measure of bone calcium mobilization. The first 10 cm of the intestine was also collected for the intestinal calcium transport analysis using the everted gut sac method.^25

Data set [3] addresses T1, full-length recombinant rat vitamin D receptor (Rattus norvegicus, UniProt P13053).
T1 sequence (P13053 1-423): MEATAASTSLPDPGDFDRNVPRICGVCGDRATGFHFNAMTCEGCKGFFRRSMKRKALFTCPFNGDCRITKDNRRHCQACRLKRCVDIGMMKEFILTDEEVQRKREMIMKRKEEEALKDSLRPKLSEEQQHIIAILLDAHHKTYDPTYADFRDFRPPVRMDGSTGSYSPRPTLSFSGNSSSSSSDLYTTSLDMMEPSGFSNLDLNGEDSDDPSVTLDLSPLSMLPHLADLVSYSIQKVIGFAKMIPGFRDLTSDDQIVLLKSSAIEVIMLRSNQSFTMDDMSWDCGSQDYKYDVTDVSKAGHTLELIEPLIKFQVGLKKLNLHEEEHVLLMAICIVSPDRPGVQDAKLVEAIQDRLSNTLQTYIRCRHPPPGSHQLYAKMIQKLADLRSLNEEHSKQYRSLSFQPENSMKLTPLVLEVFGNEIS
The experiment in a line: Competitive VDR binding. The note with it: for VDR binding ratio: average ratio of the 1α,25-(OH)2D3 Ki to the Ki for the analogue.
Protocol: as §1

The conditions of data set [4]: background statement in the discussion; cited from earlier work.
The conditions of data set [5]: background statement in the discussion, compared with 1,25-(OH)2D3; cited from earlier work.

Protocol for HL-60 promyelocytes: as §1

In the case of `C[C@@H](CCC(F)(F)C(C)(C)O)C1CCC2/C(=C/C=C3C[C@@H](O)C[C@H](O)C3)CCC[C@@]21C` (stereo partly drawn) [Compound 6, (20S)-1α,25-Dihydroxy-24,24-difluoro-19-norvitamin D3], the HL-60 differentiation ratio with HL-60 promyelocytes is on record as 50. In addition, in data set [1], the EC50 amounted to 0.04 nM and the “24OHase transcription Ratio” value came out at 5. The “bone calcium mobilization activity, in words” value in data set [2] is recorded as “highest bone mobilization activity”. For the same compound, in data set [3], the Ki – broadly, a measure of affinity in units of concentration, obtained from inhibition or displacement – worked out at 0.03 nM and the VDR binding ratio is given as 1.3.

With `C=C1[C@H](O)CC(=C/C=C2\CCC[C@@]3(C)C2CCC3[C@H](C)CCC(F)(F)C(C)(C)O)C[C@H]1O` (stereo partly drawn) [Compound 3, (20R)-1α,25-Dihydroxy-24,24-difluoro-2-methylene-19-norvitamin D3], the melting point (commonly the temperature, or range, at which the solid turns liquid) fell in the range of 163 to 164 °C. In the data set with HL-60 promyelocytes, the HL-60 differentiation ratio is 30 and the “HL-60 differentiation activity, in words” value is reported as “high potency”. Besides, in data set [1], the EC50 came to 0.01 nM and the “24OHase transcription Ratio” value stood at 20. Moreover, in data set [2], the “bone calcium mobilization activity, in words” value is “not as potent in vivo as analogues 4 and 6”. In data set [3], the Ki is 0.04 nM and the VDR binding ratio is given as 1.

As to `C=C1[C@H](O)CC(=C/C=C2\CCC[C@@]3(C)C2CCC3[C@@H](C)CCC(F)(F)C(C)(C)O)C[C@H]1O` (stereo partly drawn) [Compound 4, (20S)-1α,25-Dihydroxy-24,24-difluoro-2-methylene-19-norvitamin D3], the HL-60 differentiation ratio with HL-60 promyelocytes stood at 100. Besides, in data set [1], the EC50 worked out at 0.02 nM and the “24OHase transcription Ratio” value worked out at 10. The “24-OHase (CYP24A1) transcriptional activity, in words” value in data set [1] (compared with 1α,25-(OH)2D3 or 2MD) is on record as “almost as active as 2MD”. For the same compound, the “bone calcium mobilization activity, in words” value in data set [2] is listed as “highest bone mobilization activity”. Besides, the “bone calcium mobilization activity, in words” value in data set [2] (listed as 24,24-difluoro substituted 19-nor-20S-2-methylene-1α,25-(OH)2D3) was “bone calcium mobilization activity rivaling 2-methylene-19-nor-(20S)-1,25-dihydroxyvitamin D3 or 2MD”. Also, in data set [3], the Ki is 0.03 nM and the VDR binding ratio is 1.3.

Turning to `C[C@H](CCC(F)(F)C(C)(C)O)C1CCC2/C(=C/C=C3C[C@@H](O)C[C@H](O)C3)CCC[C@@]21C` (stereo partly drawn) [Compound 5, (20R)-1α,25-Dihydroxy-24,24-difluoro-19-norvitamin D3], the melting point was in the range of 182 to 183 °C. Also, in the data set with HL-60 promyelocytes, the HL-60 differentiation ratio was 60 and the “HL-60 differentiation activity, in words” value is “high potency”. In data set [1], the EC50 came out at 0.04 nM and the “24OHase transcription Ratio” value is 5. Further, the “bone calcium mobilization activity, in words” value in data set [2] is “not as potent in vivo as analogues 4 and 6”. Further, in data set [3], the Ki turned out to be 0.02 nM and the VDR binding ratio is on record as 2. Further, the “VDR binding, in words” value in data set [3] (compared with 1α,25-(OH)2D3) was “slightly more effective than 1α,25-(OH)2D3”.

On to `C=C1/C(=C\C=C2/CCC[C@@]3(C)C2CCC3[C@H](C)CCCC(C)(C)O)C[C@@H](O)C[C@@H]1O` (stereo partly drawn) [Compound 1, 1α,25-dihydroxyvitamin D3, reference compound], for which the EC50 in data set [1] turned out to be 0.2 nM.

In the case of `C=C1[C@H](O)CC(=C/C=C2\CCC[C@@]3(C)C2CCC3[C@@H](C)CCCC(C)(C)O)C[C@H]1O` (stereo partly drawn) [Compound 2, 2-methylene-(20S)-1α,25-dihydroxy-19-nor vitamin D3, reference compound], the HL-60 differentiation ratio in the data set on HL-60 promyelocytes was 150. Moreover, in data set [4], the “bone calcium mobilizing activity of 2MD, in words” value was “greatly increased bone calcium mobilizing activity”. For the same compound, the “intestinal calcium absorption of 2MD, in words” value in data set [5] is “not increased above that found with 1,25-(OH)2D3”. In data set [1], the EC50 was 0.007 nM and the “24OHase transcription Ratio” value is recorded as 29. Also, in data set [3], the Ki was determined as 0.03 nM and the VDR binding ratio is listed as 1.3.
